Source: patent US9108944B2, “Androgen receptor modulators and uses thereof” (ARAGON PHARMACEUTICALS, INC., priority 2010, dated 2015)

Key:
AR-VP16 [1] = molecular target: T1, AR-VP16 (Homo sapiens, UniProt P10275); experiment: AR-VP16 DNA Binding Assay, agonist mode (HepG2 cells); type: cell-based; details: Emax >20x DMSO control = agonist
T1 sequence (P10275 560-920 limits assumed): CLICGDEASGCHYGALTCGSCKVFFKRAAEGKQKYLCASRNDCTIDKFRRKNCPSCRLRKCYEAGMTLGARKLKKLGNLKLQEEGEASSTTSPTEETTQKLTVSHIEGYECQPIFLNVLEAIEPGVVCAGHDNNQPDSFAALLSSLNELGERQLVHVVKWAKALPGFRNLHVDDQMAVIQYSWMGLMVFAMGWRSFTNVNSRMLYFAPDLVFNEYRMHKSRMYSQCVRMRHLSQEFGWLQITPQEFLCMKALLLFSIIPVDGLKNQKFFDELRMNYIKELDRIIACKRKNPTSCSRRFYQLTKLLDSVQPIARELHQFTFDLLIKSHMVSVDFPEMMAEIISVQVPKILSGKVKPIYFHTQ

AR-VP16 [2] = molecular target: T1, AR-VP16; experiment: AR-VP16 DNA Binding Assay, antagonist mode (HepG2 cells, 0.1 nM R1881); type: cell-based
Summary of the method: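 HepG2 cells transiently transfected with AR-VP16 (Lipofectin), incubated overnight, then treated with compound in RPMI with charcoal-stripped serum. Antagonist mode adds R1881 at 0.1 nM final. Cells lysed after 48 h incubation for read-out.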

| Structure (SMILES) | ARVP16 DNA Binding Assay (Agonist mode): Agonist? (AR-VP16 [1]) | IC50 (AR-VP16 [2]) [µM] |
| --- | --- | --- |
| N#Cc1ncc(N2C(=O)C3(CCC3)N(c3c(F)cccc3F)C2=S)cc1C(F)(F)F [Compound 73, 5-(5-(2,6-Difluorophenyl)-8-oxo-6-thioxo-5,7-diazaspiro[3.4]octan-7-yl)-3-(trifluoromethyl)picolinonitrile] | Yes (Agonist defined as a compound whose Emax in the ARVP16 DNA Binding Assay (Agonist mode) is >20x DMSO control) | < 1 |
| Cc1cc(N2C(=O)C3(CCC3)N(c3ccc(C(=O)NCc4ccc(F)cc4)c(F)c3)C2=S)cnc1C#N [Compound 293, 4-(7-(6-Cyano-5-methylpyridin-3-yl)-8-oxo-6-thioxo-5,7-diazaspiro[3.4]octan-5-yl)-2-fluoro-N-(4-fluorobenzyl)benzamide] | No (Agonist defined as a compound whose Emax in the ARVP16 DNA Binding Assay (Agonist mode) is >20x DMSO control) | < 1 |
| N#Cc1ncc(N2C(=O)C3(CCC3)N(c3ccc(F)c(C(=O)NCCc4ccncc4)c3)C2=S)cc1C(F)(F)F [Compound 241, 5-(7-(6-Cyano-5-(trifluoromethyl)pyridin-3-yl)-8-oxo-6-thioxo-5,7-diazaspiro[3.4]octan-5-yl)-2-fluoro-N-(2-(pyridin-4-yl)ethyl)benzamide] | No (Agonist defined as a compound whose Emax in the ARVP16 DNA Binding Assay (Agonist mode) is >20x DMSO control) | > 1 |
| Cc1ccc(CCN2C(=S)N(c3cnc(C#N)c(C(F)(F)F)c3)C(=O)C23CCC3)cc1 [Compound 85, 5-(5-(4-Methylphenethyl)-8-oxo-6-thioxo-5,7-diazaspiro[3.4]octan-7-yl)-3-(trifluoromethyl)picolinonitrile] | Yes (Agonist defined as a compound whose Emax in the ARVP16 DNA Binding Assay (Agonist mode) is >20x DMSO control) | < 1 |
| N#Cc1ncc(N2C(=O)C3(CCC3)N(c3ccc(F)c(C(=O)NCCN4CCOCC4)c3)C2=S)cc1C(F)(F)F [Compound 253, 5-(7-(6-Cyano-5-(trifluoromethyl)pyridin-3-yl)-8-oxo-6-thioxo-5,7-diazaspiro[3.4]octan-5-yl)-2-fluoro-N-(2-morpholinoethyl)benzamide] | No (Agonist defined as a compound whose Emax in the ARVP16 DNA Binding Assay (Agonist mode) is >20x DMSO control) | > 1 |
| Cn1nccc1CCOc1ccc(N2C(=S)N(c3cnc(C#N)c(C(F)(F)F)c3)C(=O)C23CCC3)cc1F [Compound 126, 5-(5-(3-Fluoro-4-(2-(1-methyl-1H-pyrazol-5-yl)ethoxy)phenyl)-8-oxo-6-thioxo-5,7-diazaspiro[3.4]octan-7-yl)-3-(trifluoromethyl)picolinonitrile] | Yes (Agonist defined as a compound whose Emax in the ARVP16 DNA Binding Assay (Agonist mode) is >20x DMSO control) | < 1 |
| N#Cc1ncc(N2C(=O)C3(CCC3)N(c3ccc(C(=O)NCc4cccc(Cl)c4)c(F)c3)C2=S)cc1C(F)(F)F [Compound 288, N-(3-Chlorobenzyl)-4-(7-(6-cyano-5-(trifluoromethyl)pyridin-3-yl)-8-oxo-6-thioxo-5,7-diazaspiro[3.4]octan-5-yl)-2-fluorobenzamide] | No (Agonist defined as a compound whose Emax in the ARVP16 DNA Binding Assay (Agonist mode) is >20x DMSO control) | < 1 |
| N#Cc1ncc(N2C(=O)C3(CCC3)N(c3ccc(C(=O)NCCN4CCCC4)c(F)c3)C2=S)cc1C(F)(F)F [Compound 234, 4-(7-(6-Cyano-5-(trifluoromethyl)pyridin-3-yl)-8-oxo-6-thioxo-5,7-diazaspiro[3.4]octan-5-yl)-2-fluoro-N-(2-(pyrrolidin-1-yl)ethyl)benzamide] | No (Agonist defined as a compound whose Emax in the ARVP16 DNA Binding Assay (Agonist mode) is >20x DMSO control) | > 1 |
| Cc1cc(N2C(=O)C3(CCC3)N(c3ccc(C(=O)Nc4ccccc4)c(F)c3)C2=S)cnc1C#N [Compound 272, 4-(7-(6-Cyano-5-methylpyridin-3-yl)-8-oxo-6-thioxo-5,7-diazaspiro[3.4]octan-5-yl)-2-fluoro-N-phenylbenzamide] | No (Agonist defined as a compound whose Emax in the ARVP16 DNA Binding Assay (Agonist mode) is >20x DMSO control) | < 1 |
| N#Cc1ncc(N2C(=O)C3(CCC3)N(c3ccc(OCCN4CCSCC4)c(F)c3)C2=S)cc1C(F)(F)F [Compound 175, 5-(5-(3-Fluoro-4-(2-thiomorpholinoethoxy)phenyl)-8-oxo-6-thioxo-5,7-diazaspiro[3.4]octan-7-yl)-3-(trifluoromethyl)picolinonitrile] | No (Agonist defined as a compound whose Emax in the ARVP16 DNA Binding Assay (Agonist mode) is >20x DMSO control) | < 1 |
| N#Cc1ncc(N2C(=O)C3(CCC3)N(c3ccc(F)c(OCCc4ccccn4)c3)C2=S)cc1C(F)(F)F [Compound 158, 5-(5-(4-Fluoro-3-(2-(pyridin-2-yl)ethoxy)phenyl)-8-oxo-6-thioxo-5,7-diazaspiro[3.4]octan-7-yl)-3-(trifluoromethyl)picolinonitrile] | No (Agonist defined as a compound whose Emax in the ARVP16 DNA Binding Assay (Agonist mode) is >20x DMSO control) | > 1 |
| CN1CCC(NC(=O)c2ccc(N3C(=S)N(c4cnc(C#N)c(C(F)(F)F)c4)C(=O)C34CCC4)cc2F)CC1 [Compound 276, 4-(7-(6-Cyano-5-(trifluoromethyl)pyridin-3-yl)-8-oxo-6-thioxo-5,7-diazaspiro[3.4]octan-5-yl)-2-fluoro-N-(1-methylpiperidin-4-yl)benzamide] | No (Agonist defined as a compound whose Emax in the ARVP16 DNA Binding Assay (Agonist mode) is >20x DMSO control) | > 1 |
| N#Cc1ncc(N2C(=O)C3(CCC3)N(c3ccc(Oc4cccnc4)cc3)C2=S)cc1C(F)(F)F [Compound 39, 5-(8-Oxo-5-(4-(pyridin-3-yloxy)phenyl)-6-thioxo-5,7-diazaspiro[3.4]octan-7-yl)-3-(trifluoromethyl)picolinonitrile] | Yes (Agonist defined as a compound whose Emax in the ARVP16 DNA Binding Assay (Agonist mode) is >20x DMSO control) | < 1 |
| N#Cc1ncc(N2C(=O)C3(CCC3)N(c3ccc(C(=O)NCCN4CCOCC4)c(F)c3)C2=S)cc1C(F)(F)F [Compound 242, 4-(7-(6-Cyano-5-(trifluoromethyl)pyridin-3-yl)-8-oxo-6-thioxo-5,7-diazaspiro[3.4]octan-5-yl)-2-fluoro-N-(2-morpholinoethyl)benzamide] | No (Agonist defined as a compound whose Emax in the ARVP16 DNA Binding Assay (Agonist mode) is >20x DMSO control) | < 1 |
| N#Cc1ncc(N2C(=O)C3(CCC3)N(c3ccc(OCCCSCCCC(F)(F)C(F)(F)F)c(F)c3)C2=S)cc1C(F)(F)F [Compound 153, 5-(5-(3-Fluoro-4-(3-((4,4,5,5,5-pentafluoropentyl)thio)propoxy)phenyl)-8-oxo-6-thioxo-5,7-diazaspiro[3.4]octan-7-yl)-3-(trifluoromethyl)picolinonitrile] | No (Agonist defined as a compound whose Emax in the ARVP16 DNA Binding Assay (Agonist mode) is >20x DMSO control) | < 1 |
| N#Cc1ncc(N2C(=O)C3(CCC3)N(c3ccc(F)c(OCCCN4CCOCC4)c3)C2=S)cc1C(F)(F)F [Compound 165, 5-(5-(4-Fluoro-3-(3-morpholinopropoxy)phenyl)-8-oxo-6-thioxo-5,7-diazaspiro[3.4]octan-7-yl)-3-(trifluoromethyl)picolinonitrile] | No (Agonist defined as a compound whose Emax in the ARVP16 DNA Binding Assay (Agonist mode) is >20x DMSO control) | > 1 |
| COCCCCOc1ccc(N2C(=S)N(c3cnc(C#N)c(C(F)(F)F)c3)C(=O)C23CCC3)cc1F [Compound 133, 5-(5-(3-Fluoro-4-(4-methoxybutoxy)phenyl)-8-oxo-6-thioxo-5,7-diazaspiro[3.4]octan-7-yl)-3-(trifluoromethyl)picolinonitrile] | No (Agonist defined as a compound whose Emax in the ARVP16 DNA Binding Assay (Agonist mode) is >20x DMSO control) | < 1 |
| N#Cc1ncc(N2C(=O)C3(CCC3)N(c3ccc(OCCc4ccccn4)c(F)c3)C2=S)cc1C(F)(F)F [Compound 130, 5-(5-(3-Fluoro-4-(2-(pyridin-2-yl)ethoxy)phenyl)-8-oxo-6-thioxo-5,7-diazaspiro[3.4]octan-7-yl)-3-(trifluoromethyl)picolinonitrile] | No (Agonist defined as a compound whose Emax in the ARVP16 DNA Binding Assay (Agonist mode) is >20x DMSO control) | < 1 |
| CCOC(=O)CCCNC(=O)c1ccc(N2C(=S)N(c3cnc(C#N)c(C(F)(F)F)c3)C(=O)C23CCC3)cc1F [Compound 247, Ethyl 4-(4-(7-(6-cyano-5-(trifluoromethyl)pyridin-3-yl)-8-oxo-6-thioxo-5,7-diazaspiro[3.4]octan-5-yl)-2-fluorobenzamido)butanoate] | No (Agonist defined as a compound whose Emax in the ARVP16 DNA Binding Assay (Agonist mode) is >20x DMSO control) | > 1 |
